From patent US8993260B2, “Fluorescence-based viability staining method using a membrane permeable flourescent dye and membrane impermeable fluorescence quencher” (Charles River Laboratories, Inc., priority 2012, dated 2015) come the findings set out here.

Assay [1] deals with viable and non-viable E. coli. Put plainly: Viability staining of mixed viable/non-viable E. coli in solution: fluorescent probe and two PET quenchers. The class given is cell-based. The following applies: 0.005 mM Oxazine 170 perchlorate, 0.4 mM p-Sulfonic calix[6]arene, 100 mM sodium ascorbate in PBS; about 5 min. The procedure: The viable and heat killed E. coli were preparations were prepared as described in Example 1. The heat killed E. coli suspension was then combined with the viable cell suspension and mixed by vortexing. The resulting cell suspension served as the viable and non-viable E. coli solution. A fluorescent probe-quencher stain was prepared as a solution consisting of 0.005 mM Oxazine 170 perchlorate (Sigma-Aldrich, St. Louis, Mo.), 0.4 mM p-Sulfonic calix[6]arene (TCI America, Portland, Oreg.), 100 mM Sodium ascorbate (Sigma-Aldrich, St. Louis, Mo.) in PBS. The viable and non-viable E. coli suspension was then diluted 1:1000 into the fluorescent probe-quencher solution to stain the cells. After incubation for approximately 5 minutes, a droplet of the stained cell solution was placed onto a microscope slide and imaged on a fluorescent microscope (Carl Zeiss, LLC, Thornwood, N.Y.). FIGS. 20A and 20B show a combined image of the viable and non-viable stained E. coli captured under phase contrast (FIG. 20A) as well as fluorescent conditions (excitation 575-625 nm, emission 660-710 nm) (FIG. 20B). The viable and non-viable cells were indistinguishable in phase contrast but under fluorescent conditions the viable cells were brightly fluorescent whereas the non viable cells were not.

The test system of assay [2] is viable and heat killed E. coli. As to the kind of experiment: Viability staining of E. coli captured on a membrane: fluorescent probe and quencher wash, fluorescence microscopy. It is filed as cell-based. The following applies: 0.005 mM Oxazine 170 perchlorate stain, then 10 mM sodium ascorbate wash. As for the experimental part: Viable and non-viable E. coli cell fractions were prepared by picking a colony cultured on a conventional media plate and then transferring the cells into Phosphate Buffered Saline (PBS). The cells then were suspended by vortexing and then were further diluted in PBS to give a turbidity equivalent to a 1.0 McFarland standard. This stock solution served as the live cell fraction. An aliquot of the live cell fraction was transferred to a glass tube that was placed into a boiling water bath for about 15 minutes to heat kill the E. coli. The tube was removed from the bath and allowed to cool to room temperature. This heat killed suspension served as the dead cell fraction. A fluorescent stain solution was prepared as a 0.005 mM solution of Oxazine 170 perchlorate (Sigma-Aldrich, St. Louis, Mo.) in PBS containing a 1:100,000 dilution of 10% w/v 0.8 μm Sky Blue latex fluorescent particles (Spherotech, Lake Forest, Ill.). A separate quencher wash solution was prepared as a 10 mM Sodium ascorbate (Sigma-Aldrich, St. Louis, Mo.) solution in PBS. […] The cells then were imaged using a fluorescent microscope (Carl Zeiss, LLC—Thornwood, N.Y.) with an excitation of 575 nm-625 nm and measured emission of 660 nm-710 nm. […]

Molecules are shown by their SMILES.

Turning to `O=S(=O)(O)c1cc2c(O)c(c1)Cc1cc(S(=O)(=O)O)cc(c1O)Cc1cc(S(=O)(=O)O)cc(c1O)Cc1cc(S(=O)(=O)O)cc(c1O)Cc1cc(S(=O)(=O)O)cc(c1O)Cc1cc(S(=O)(=O)O)cc(c1O)C2` [p-Sulfonic calix[6]arene, 4- Sulfocalix [6]arene], the “Permeation of the quencher through non-viable cell membranes and quenching of fluorescence” value in assay [1] was “permeated the non-viable cell membranes resulting in an effective quenching of fluorescence”.

On to `O=C1O[C@H]([C@@H](O)CO)C([O-])=C1O.[Na+]` [sodium ascorbate, Sodium Ascorbate], for which, in assay [1], the “Permeation of the quencher through non-viable cell membranes and quenching of fluorescence” value is reported as “permeated the non-viable cell membranes resulting in an effective quenching of fluorescence”. Also, in assay [2] (heat killed E. coli on 0.2 μm membrane), the “Permeation of the quencher into heat killed cells (quenching of fluorescent signal)” value is given as “permeated”. Moreover, in assay [2] (live E. coli on 0.2 μm membrane, ex 575-625 nm, em 660-710 nm), the “Permeation of the quencher into viable cells” value is on record as “excluded from the viable cells”.
